Laboratory results from patent US9700538B2, “Cardiovascular disease primary prevention agent for patients having high blood levels of high-sensitivity C-reactive protein” (MOCHIDA PHARMACEUTICAL CO., LTD., priority 2012, dated 2017).

System: subjects with no history of cardiovascular disease, blood hs-CRP value of at least 1.0 mg/L
Assay: Hisayama epidemiologic study: events by administration of statin drug and EPA in the high hs-CRP group
Type: in vivo, human
From the text: The Hisayama study is an epidemiologic study of cerebral stroke, cardiovascular disease, and the like that has been conducted with the residents of the town of Hisayama town (population, about 8,400) in Kasuya county of Fukuoka prefecture adjacent to Fukuoka city from 1961. The age and occupation distributions of the residents of Hisayama town were almost identical to those of Japan as a whole, and the residents can be regarded as an average group of Japanese people with substantially no bias. Features of the Hisayama study include participation of all residents (who are at least 40 years old), prospective cohort study, examination and home visit by the stuff of the study, consultation rate (at least 80%), autopsy rate (about 80%), and follow-up rate (at least 99%), and the most characteristic feature of this study is the high rate of autopsy. No diagnosis is more accurate than autopsy in finding out the accurate cause of the death, and the precision of the follow up study is also high. In addition, the Hisayama study periodically adds the residents who have reached 40 years old to the group every 5 years, and estimation of influence of the life style transition as well as change of risk factors was thereby enabled.
3,103 residents of 40 years old or older who were registered in 2002 were used for the subject excluding those who have history of cardiovascular disease and those with no data of EPA/AA ratio. Average follow-up period was 5.1 years.
The group with a blood hs-CRP value of at least 1.0 mg/L (high hs-CRP group) was extracted from the entire subjects. The blood hs-CRP value was quantitated by using a commercially available assay kit.
The high hs-CRP group was further divided into 4 groups by the administration and non-administration of the statin drug and the administration and non-administration of the EPA.
In the table, “statin (−)+EPA (−)” means that neither the statin drug nor the EPA was administered to a subject; “statin (+)+EPA (−)” means that the statin drug was administered but not the EPA; “statin (−)+EPA (+)” means that the statin drug was not administered despite the administration of the EPA; and “statin (+)+EPA (+)” means that both the statin drug and the EPA were administered. Furthermore, “event (−)” and “event (+)” […].

[1] = high hs-CRP group, EPA irrespective of statin, statin drug vs no statin within the group with no EPA
[2] = number of subjects, high hs-CRP group (hs-CRP ≧1.0 mg/L), average follow-up 5.1 years

## CC/C=C\C/C=C\C/C=C\C/C=C\C/C=C\CCCC(=O)O [EPA, all-cis-5,8,11,14,17-icosapentaenoic acid]
Entire subjects, irrespective of administration of the statin drug
  Cerebral stroke event occurrence (in words): no event occurred
[1]
  Cardiovascular disease event occurrence (in words): no event occurred
  Cerebral stroke event occurrence (in words): no event occurred
  Coronary artery disease event occurrence (in words): no event occurred
[2]
  Cardiovascular disease, Event (+): 0
  Cardiovascular disease, Event (−): 4
  Cerebral stroke, Event (+): 0
  Cerebral stroke, Event (−): 4
  Coronary artery disease, Event (+): 0
  Coronary artery disease, Event (−): 4
